Source: ChEMBL document CHEMBL1201862, “PubChem BioAssay data set” (2004)
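All cell lines were grown in 96-well plates and treated with compound for 48 hours. Here, GI50 denotes the concentration required for 50% inhibition of growth.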 The source made the active and inactive calls. Rule as the data show it: active = GI50 up to about 1.1 µM and inactive = higher.

What was measured:
Experiment in all cases: NCI-60 cell line screen, 48 h
[1] = tested on: UACC-62
[2] = tested on: SN12C
[3] = tested on: SW-620
[4] = tested on: OVCAR-3
[5] = tested on: A549
[6] = tested on: MDA-MB-435
[7] = tested on: SF-539
[8] = tested on: MCF7
[9] = tested on: SK-MEL-2
[10] = tested on: K562
[11] = tested on: SR
[12] = tested on: CCRF-CEM
[13] = tested on: HOP-62
[14] = tested on: NCI-H522
[15] = tested on: A498
[16] = tested on: DU-145
[17] = tested on: LOX IMVI
[18] = tested on: RPMI-8226
[19] = tested on: T47D
[20] = tested on: SF-295
[21] = tested on: HCC 2998
[22] = tested on: MDA-N
[23] = tested on: OVCAR-4
[24] = tested on: HCT-15
[25] = tested on: RXF 393
[26] = tested on: MDA-MB-231
[27] = tested on: U-251
[28] = tested on: NCI-H226
[29] = tested on: UACC-257
[30] = tested on: SK-MEL-28
[31] = tested on: OVCAR-5
[32] = tested on: HOP-92
[33] = tested on: SK-OV-3
[34] = tested on: TK-10
[35] = tested on: UO-31
[36] = tested on: Malme-3M
[37] = tested on: COLO 205
[38] = tested on: HCT-116
[39] = tested on: KM12
[40] = tested on: HL-60
[41] = tested on: 786-0
[42] = tested on: NCI-H460
[43] = tested on: BT-549
[44] = tested on: SNB-19
[45] = tested on: SNB-75
[46] = tested on: M14
[47] = tested on: OVCAR-8
[48] = tested on: IGROV-1
[49] = tested on: SK-MEL-5
[50] = tested on: NCI-H23
[51] = tested on: EKVX
[52] = tested on: MOLT-4
[53] = tested on: PC-3
[54] = tested on: HT-29
[55] = tested on: NCI/ADR-RES
[56] = tested on: CAKI-1
[57] = tested on: SF-268
[58] = tested on: Hs-578T
[59] = tested on: ACHN

## COc1ccc([C@]23CCC4(OCC(C)(C)CO4)[C@H]4CON(O[C@H](O[C@@H]5CCCCC5C(C)(C)c5ccccc5)C2)[C@@H]43)cc1OC (stereo partly specified)
[1]
  GI50: 30.4 µM (inactive)
[2]
  GI50: 61.1 µM (inactive)
[3]
  GI50: 36.4 µM (inactive)
[4]
  GI50: 34 µM (inactive)
[5]
  GI50: 42.3 µM (inactive)
[6]
  GI50: 25.9 µM (inactive)
[7]
  GI50: 5.81 µM (inactive)
[8]
  GI50: 30.1 µM (inactive)
[9]
  GI50: 47.1 µM (inactive)
[10]
  GI50: 21.5 µM (inactive)
[11]
  GI50: 20 µM (inactive)
[12]
  GI50: 29.5 µM (inactive)
[13]
  GI50: 97.3 µM (inactive)
[14]
  GI50: 27 µM (inactive)
[15]
  GI50: 48.1 µM (inactive)
[16]
  GI50: 59.3 µM (inactive)
[17]
  GI50: 57.5 µM (inactive)
[18]
  GI50: 26.9 µM (inactive)
[19]
  GI50: 20.2 µM (inactive)
[20]
  GI50: 39 µM (inactive)
[21]
  GI50: > 100 µM (inactive)
[22]
  GI50: 28.8 µM (inactive)
[23]
  GI50: 26.1 µM (inactive)
[24]
  GI50: 37.8 µM
[25]
  GI50: 25.4 µM (inactive)
[26]
  GI50: 81.7 µM (inactive)
[27]
  GI50: 64 µM (inactive)
[28]
  GI50: 58.6 µM (inactive)
[29]
  GI50: 36.6 µM (inactive)
[30]
  GI50: 42.6 µM (inactive)
[31]
  GI50: 89.1 µM (inactive)
[32]
  GI50: 25.8 µM (inactive)
[33]
  GI50: 78.3 µM (inactive)
[34]
  GI50: 78.5 µM (inactive)
[35]
  GI50: 35.8 µM (inactive)
[36]
  GI50: 56.6 µM (inactive)
[37]
  GI50: 34.7 µM (inactive)
[38]
  GI50: 33.3 µM (inactive)
[39]
  GI50: 29.6 µM (inactive)
[40]
  GI50: 20.6 µM (inactive)
[41]
  GI50: 50.5 µM (inactive)
[42]
  GI50: 79.4 µM (inactive)
[43]
  GI50: 69 µM (inactive)
[44]
  GI50: 61.7 µM (inactive)
[45]
  GI50: 41.5 µM (inactive)
[46]
  GI50: 35.6 µM (inactive)
[47]
  GI50: 60 µM (inactive)
[48]
  GI50: 32.7 µM (inactive)
[49]
  GI50: 22.2 µM (inactive)
[50]
  GI50: 47.6 µM (inactive)
[51]
  GI50: 34 µM (inactive)
[52]
  GI50: 17.7 µM (inactive)
[53]
  GI50: 39.6 µM (inactive)
[54]
  GI50: 44 µM (inactive)
[55]
  GI50: 31 µM (inactive)
[56]
  GI50: 13.6 µM (inactive)

## CC(NC(=O)Cc1ccc(OP(=O)(OCc2ccc([N+](=O)[O-])o2)N(C)CCCCCl)cc1)c1ccc(OCC2CCCCC2)c(C(N)=O)c1 (stereo unspecified)
[1]
  GI50: 1.74 µM (inactive)
[2]
  GI50: 1.96 µM (inactive)
[3]
  GI50: 3.45 µM (inactive)
[4]
  GI50: 1.66 µM (inactive)
[5]
  GI50: 1.87 µM (inactive)
[6]
  GI50: 1.89 µM (inactive)
[7]
  GI50: 2.02 µM (inactive)
[8]
  GI50: 2.52 µM (inactive)
[9]
  GI50: 2.26 µM (inactive)
[10]
  GI50: 2.77 µM (inactive)
[11]
  GI50: 1.48 µM (inactive)
[12]
  GI50: 0.906 µM (active)
[57]
  GI50: 2.22 µM (inactive)
[13]
  GI50: 2.65 µM (inactive)
[14]
  GI50: 2.25 µM (inactive)
[15]
  GI50: 3.01 µM (inactive)
[16]
  GI50: 2.8 µM (inactive)
[17]
  GI50: 1.74 µM (inactive)
[18]
  GI50: 0.574 µM (active)
[19]
  GI50: 1.18 µM (inactive)
[20]
  GI50: 2.24 µM (inactive)
[21]
  GI50: 1.35 µM (inactive)
[22]
  GI50: 1.88 µM (inactive)
[23]
  GI50: 2.16 µM (inactive)
[24]
  GI50: 2.39 µM
[25]
  GI50: 1.99 µM (inactive)
[26]
  GI50: 2.08 µM (inactive)
[27]
  GI50: 2.14 µM (inactive)
[28]
  GI50: 2.48 µM (inactive)
[29]
  GI50: 1.67 µM (inactive)
[30]
  GI50: 1.65 µM (inactive)
[58]
  GI50: 1.92 µM (inactive)
[31]
  GI50: 3.01 µM (inactive)
[33]
  GI50: 3.08 µM (inactive)
[34]
  GI50: 3.22 µM (inactive)
[35]
  GI50: 2.58 µM (inactive)
[36]
  GI50: 1.77 µM (inactive)
[37]
  GI50: 1.63 µM (inactive)
[38]
  GI50: 1.85 µM (inactive)
[39]
  GI50: 2.4 µM (inactive)
[40]
  GI50: 2.22 µM (inactive)
[41]
  GI50: 2.92 µM (inactive)
[42]
  GI50: 2.79 µM (inactive)
[44]
  GI50: 3.3 µM (inactive)
[46]
  GI50: 2.12 µM (inactive)
[47]
  GI50: 3.6 µM (inactive)
[59]
  GI50: 3.56 µM (inactive)
[48]
  GI50: 1.91 µM (inactive)
[49]
  GI50: 1.6 µM (inactive)
[50]
  GI50: 2.08 µM (inactive)
[52]
  GI50: 1.52 µM (inactive)
[53]
  GI50: 2.88 µM (inactive)
[54]
  GI50: 1.39 µM (inactive)
[55]
  GI50: 4.5 µM (inactive)
[56]
  GI50: 2.91 µM (inactive)
